Test results published in the supplement of paper PMC10307832.

Columns and labels:
Assay in all cases: relative viability (nuclei count vs DMSO), 5 days (fraction); higher = more cells survive
FG-4592 + Lapatinib = compound: Cc1nc(C(=O)NCC(=O)O)c(O)c2ccc(Oc3ccccc3)cc12 [FG-4592] + CS(=O)(=O)CCNCc1ccc(-c2ccc3ncnc(Nc4ccc(OCc5cccc(F)c5)c(Cl)c4)c3c2)o1 [Lapatinib] (partner 2 µM)
In short: (§1)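 Five library-drug doses in √10 steps were combined with a fixed anchor-drug dose, or a single drug was given alone, by pin tool to lung cancer cell lines in 1536-well plates the day after seeding. Nuclei were stained and counted after 5 days. Relative viability is the nuclei count in treated wells over that in vehicle wells, taken as the median of duplicate plates.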

FG-4592 + Bortezomib = compound: Cc1nc(C(=O)NCC(=O)O)c(O)c2ccc(Oc3ccccc3)cc12 [FG-4592] + CC(C)C[C@H](NC(=O)[C@H](Cc1ccccc1)NC(=O)c1cnccn1)B(O)O [Bortezomib] (partner 0.002 µM)
In short: as §1

IU1-47 + Tozasertib = compound: CC1=CC(=C(N1C2=CC=C(C=C2)Cl)C)C(=O)CN3CCCCC3 [IU1-47] + Cc1cc(Nc2cc(N3CCN(C)CC3)nc(Sc3ccc(NC(=O)C4CC4)cc3)n2)n[nH]1 [Tozasertib] (partner 0.1 µM)
In short: as §1

IU1-47 + Phenformin = compound: CC1=CC(=C(N1C2=CC=C(C=C2)Cl)C)C(=O)CN3CCCCC3 [IU1-47] + N=C(N)NC(=N)NCCc1ccccc1 [Phenformin] (partner 250 µM)
In short: as §1

| Cell Line | relative viability (FG-4592 + Lapatinib; first compound 0.08 µM) | relative viability (FG-4592 + Lapatinib; first compound 0.253 µM) | relative viability (FG-4592 + Lapatinib; first compound 0.8 µM) | relative viability (FG-4592 + Lapatinib; first compound 2.53 µM) | relative viability (FG-4592 + Lapatinib; first compound 8 µM) | relative viability (FG-4592 + Bortezomib; first compound 0.08 µM) | relative viability (FG-4592 + Bortezomib; first compound 0.253 µM) | relative viability (FG-4592 + Bortezomib; first compound 0.8 µM) | relative viability (FG-4592 + Bortezomib; first compound 2.53 µM) | relative viability (FG-4592 + Bortezomib; first compound 8 µM) | relative viability (IU1-47 + Tozasertib; first compound 0.08 µM) | relative viability (IU1-47 + Tozasertib; first compound 0.253 µM) | relative viability (IU1-47 + Tozasertib; first compound 0.8 µM) | relative viability (IU1-47 + Tozasertib; first compound 8 µM) | relative viability (IU1-47 + Phenformin; first compound 0.08 µM) | relative viability (IU1-47 + Phenformin; first compound 0.253 µM) | relative viability (IU1-47 + Phenformin; first compound 0.8 µM) | relative viability (IU1-47 + Phenformin; first compound 2.53 µM) | relative viability (IU1-47 + Phenformin; first compound 8 µM) | relative viability (IU1-47 + Tozasertib; first compound 2.53 µM) |
| --- | --- | --- | --- | --- | --- | --- | --- | --- | --- | --- | --- | --- | --- | --- | --- | --- | --- | --- | --- | --- |
| HCC-15 | 0.883 | 0.706 | 0.852 | 0.871 | 0.944 | 1.01 | 0.913 | 1.07 | 1.07 | 0.999 | 0.385 | 0.432 | 0.354 | 0.227 | 0.482 | 0.497 | 0.557 | 0.491 | 0.432 | – |
| IA-LM | 0.675 | 0.78 | 0.66 | 0.711 | 0.567 | 0.914 | 0.75 | 0.814 | 0.653 | 0.405 | – | – | – | – | – | – | – | – | – | – |
| LCLC-103H | – | – | – | – | – | 1.04 | 1.01 | 1.02 | 1.09 | 1.15 | 0.576 | 0.586 | 0.531 | 0.451 | 0.334 | 0.369 | 0.326 | 0.423 | 0.298 | 0.503 |
| LK-2 | 0.695 | 0.912 | 0.68 | 0.886 | 0.767 | – | – | – | – | – | 0.163 | 0.168 | 0.155 | 0.166 | 0.467 | 0.504 | 0.432 | 0.579 | 0.239 | 0.168 |
| NCI-H358 | 0.501 | 0.413 | 0.497 | 0.437 | 0.453 | – | – | – | – | – | 0.089 | 0.103 | 0.0989 | 0.0979 | 0.328 | 0.323 | 0.339 | 0.307 | 0.274 | 0.0928 |
| NCI-H441 | – | – | – | – | – | 0.272 | 0.647 | 0.356 | 0.44 | 0.367 | 0.824 | 0.713 | 0.667 | 0.544 | 0.994 | 0.978 | 0.787 | 0.887 | 0.787 | 0.662 |
| NCI-H522 | – | – | – | – | – | – | – | – | – | – | 0.52 | 0.523 | 0.516 | 0.519 | 0.577 | 0.595 | 0.708 | 0.585 | 0.647 | 0.489 |
| NCI-H1299 | 0.969 | 0.941 | 0.981 | 0.954 | 0.988 | 1.07 | 0.993 | 0.951 | 1 | 1.06 | – | – | – | – | – | – | – | – | – | – |
| NCI-H1395 | 1.19 | 0.935 | – | 0.967 | 0.662 | – | – | – | – | – | 0.739 | 0.692 | 0.835 | 0.718 | 0.408 | 0.456 | 0.472 | 0.436 | 0.374 | 0.8 |
| NCI-H1563 | 0.873 | 0.829 | 0.779 | 1.04 | 0.809 | 0.647 | 0.843 | 0.751 | 0.8 | 0.661 | – | – | – | – | 0.657 | 0.691 | 0.629 | 0.709 | 0.584 | – |
| NCI-H1623 | – | – | – | – | – | – | – | – | – | – | 0.494 | 0.43 | 0.428 | 0.428 | 0.634 | 0.61 | 0.642 | 0.576 | 0.551 | 0.451 |
| NCI-H1648 | – | – | – | – | – | – | – | – | – | – | 0.518 | 0.569 | 0.476 | 0.43 | – | – | – | – | – | 0.338 |
| NCI-H1703 | 1.11 | 0.881 | 1.11 | 0.966 | 0.936 | 0.334 | 0.327 | 0.355 | 0.186 | 0.274 | – | – | – | – | – | – | – | – | – | – |
| NCI-H1792 | 0.859 | 0.785 | 0.908 | 0.86 | 0.849 | 0.985 | 0.753 | 0.998 | 0.883 | 0.923 | – | – | – | – | 0.302 | 0.249 | 0.197 | 0.174 | 0.183 | – |
| NCI-H1793 | 0.592 | 0.468 | – | 0.646 | 0.62 | – | – | – | – | – | 0.346 | 0.319 | 0.296 | 0.299 | 0.419 | 0.259 | 0.475 | – | 0.352 | – |
| NCI-H1944 | 0.712 | 0.759 | 0.576 | 0.71 | 0.768 | – | – | – | – | – | 0.231 | 0.248 | 0.265 | 0.265 | 0.2 | 0.192 | 0.199 | 0.216 | 0.168 | 0.283 |
| NCI-H2170 | 0.263 | 0.244 | 0.242 | 0.277 | 0.256 | – | – | – | – | – | 0.714 | 0.786 | 0.762 | 0.676 | 0.48 | 0.435 | 0.389 | 0.414 | 0.403 | 0.892 |
| NCI-H2342 | – | – | – | – | – | – | – | – | – | – | 0.493 | 0.608 | 0.602 | 0.594 | 0.628 | 0.558 | 0.694 | 0.552 | 0.593 | 0.512 |
| SK-MES-1 | 0.513 | 0.489 | 0.42 | 0.489 | 0.397 | – | – | – | – | – | 1 | 1.03 | 0.906 | 0.935 | 0.729 | 0.76 | 0.66 | 0.662 | 0.575 | 0.868 |
| SW 900 | – | – | – | – | – | – | – | – | – | – | 0.512 | 0.54 | 0.615 | 0.469 | 0.628 | 0.539 | 0.444 | 0.532 | 0.661 | 0.439 |
